The source of these data is patent US6521634B2, “Uses of dl-THP” (The Hong Kong University of Science & Technology, priority 2001, dated 2003).

In data set [1] the target is α-2 adrenoceptors. The note with it: rat cerebral cortex; previously performed studies; cited from earlier work.
Data set [2] concerns ICR mice. Put plainly: Locomotor activity test. The class given is in vivo. Particulars: 1 hour before 5 minute test. The procedure:
ICR mice of either sex, weighing 14-17 g were used. Animals were housed in groups of four or five and were given food and water ad libitum and maintained on a 11 hour light: 13 hour dark cycle. All of the experimental groups had 12 animals per group. dl-THP was dissolved in double distilled water and administered orally 1 hour before testing at concentrations as detailed below, with a total injection volume of 10 ml/kg. For the control group, double-distilled water was used as the vehicle. All procedures were carried out in a quiet, air-conditioned laboratory between 08:00 and 13:00 at ambient temperature of 20-22° C. At the end of each session any boluses were removed and the box was thoroughly wiped with 70% ethanol. The ZIL-2 apparatus (Beijing Institute of Materia Medica) having dimensions of 60×60×12 cm was used to perform this test. It consists of four circular plastic boxes of 25 cm diameter, each having 6 equally distributed infrared photocells. The locomotor activity was counted automatically during a 5 minute test period. A decrease in the number of transitions reflects a decrease in locomotor activity. The results from the locomotor activity test and the elevated plus-maze test are expressed as mean±standard error of mean (SEM). All data were submitted to analysis of variance (ANOVA). Post hoc comparisons between individual treatments and controls of the locomotor activity test, the hole-board test and the elevated plus-maze test were made using Dunnett's t-test. The level of significance was considered to be p<0.05.

Data set [3] deals with ICR mice. The experiment in a line: Horizontal-wire test. Format: in vivo. The note with it: up to 30 mg/kg orally. The procedure:
ICR mice of either sex, weighing 14-17 g were used. Animals were housed in groups of four or five and were given food and water ad libitum and maintained on a 11 hour light: 13 hour dark cycle. All of the experimental groups had 12 animals per group. dl-THP was dissolved in double distilled water and administered orally 1 hour before testing at concentrations as detailed below, with a total injection volume of 10 ml/kg. For the control group, double-distilled water was used as the vehicle. The mice are lifted by the tail and allowed to grasp a horizontally strung wire (1 mm diameter, 15 cm long and placed 20 cm above the table) with their forepaws and released (Bonetti E P et al., Psychophannacology (Berl). 1982;78(1):8-18; PMID: 6292984).

The subject of data set [4] is ICR mice. Put plainly: Hole-board test. Format: in vivo. The note with it: 5 minute test. The procedure: ICR mice of either sex, weighing 14-17 g were used. Animals were housed in groups of four or five and were given food and water ad libitum and maintained on a 11 hour light: 13 hour dark cycle. All of the experimental groups had 12 animals per group.
dl-THP was dissolved in double distilled water and administered orally 1 hour before testing at concentrations as detailed below, with a total injection volume of 10 ml/kg. For the control group, double-distilled water was used as the vehicle.
All procedures were carried out in a quiet, air-conditioned laboratory between 08:00 and 13:00 at ambient temperature of 20-22° C. At the end of each session any boluses were removed and the box was thoroughly wiped with 70% ethanol.
The hole-board apparatus is a walled wood arena of 60×60×30 cm, with four equidistant 3 cm diameter holes spaced on the floor. The mice are placed on the center of the arena and the number of head-dips on the hole, the time spent head-dipping, the number of rearings and the time spent rearing are counted during a 5 minute test period (File SE et al., “The effects of triazolobenzodiazepines in two animal tests of anxiety and in the holeboard.”, Br J Pharmacol. November 1985;86(3):729-35; PMID: 2866006). After each trial, the floor of the apparatus was wiped and dried thoroughly with tissue to remove traces of the previous path.
The results from the locomotor activity test and the elevated plus-maze test are expressed as mean±standard error of mean (SEM). All data were submitted to analysis of variance (ANOVA). Post hoc comparisons between individual treatments and controls of the locomotor activity test, the hole-board test and the elevated plus-maze test were made using Dunnett's t-test. The level of significance was considered to be p<0.05.

Data set [5] concerns ICR mice. The experiment in a line: Elevated plus-maze test. Format: in vivo. Here is the method:
ICR mice of either sex, weighing 14-17 g were used. Animals were housed in groups of four or five and were given food and water ad libitum and maintained on a 11 hour light: 13 hour dark cycle. All of the experimental groups had 12 animals per group. dl-THP was dissolved in double distilled water and administered orally 1 hour before testing at concentrations as detailed below, with a total injection volume of 10 ml/kg. For the control group, double-distilled water was used as the vehicle. All procedures were carried out in a quiet, air-conditioned laboratory between 08:00 and 13:00 at ambient temperature of 20-22° C. At the end of each session any boluses were removed and the box was thoroughly wiped with 70% ethanol. The elevated plus-maze is made of wood as a horizontal cross consisting of two open arms (25×5 cm) and two opposite arms (25×5 cm) enclosed by 20 cm high walls. The arms extend from a central platform having dimensions of 5×5 cm. The plus-maze is elevated to a height of 40 cm from the floor. The maze is put inside a box with dimensions of 30×30×50 cm. After the hole-board test, the mice are immediately placed on the central platform of the maze facing a closed arm. The number of arm entries and the time spent into the open and closed arm are counted for 5 minutes (Pellow S et al., “Anxiolytic and anxiogenic drug effects on exploratory activity in an elevated plus-maze: a novel test of anxiety in the rat.”, Pharmacol Biochem Behav. March 1986;24(3):525-9; PMID: 2871560). Arm entry was defined as all four feet in the arm. The total number of arm entries provided a measure of general activity. […] The results from the locomotor activity test and the elevated plus-maze test are expressed as mean±standard error of mean (SEM). All data were submitted to analysis of variance (ANOVA). Post hoc comparisons between individual treatments and controls of the locomotor activity test, the hole-board test and the elevated plus-maze test were made using Dunnett's t-test. The level of significance was considered to be p<0.05.

The subject of data set [6] is rats. Particulars: rat, in vivo, po; cited from earlier work.
Data set [7] concerns the target BDZ binding site of the GABAA receptor. Put plainly: competitive binding assay with [3H]-flunitrazepam. Particulars: [3H]-flunitrazepam competition.
Data set [8] relates to mice. Particulars: cited from earlier work.
For data set [9], the target named is α-1 adrenoceptors. Particulars: rat cerebral cortex; previously performed studies; cited from earlier work.
Setting [10] is: 1, 10 and 30 mg/kg orally, dose-dependent, 5 minute test.

As a reminder, the pKi is −log10 of the Ki, conventionally taken in molar units. Usually LD50 stands for the dose at which mortality reaches 50%. Broadly, the pIC50 is the IC50 on a negative log10 scale, so that one unit is a factor of ten.

pIC50, pKi: −log10 of the molar value. Like-named read-outs stand apart in the source and are kept apart here.

For the compound `COc1cc2c(cc1OC)C1Cc3ccc(OC)c(OC)c3CN1CC2` (racemic) [dl-THP, 5,8,18,13a-tetrahydro-2,3,9,10-tetramethoxy-6H-dibenzo [a,q] quinolizine], the pKi in data set [1] was 5.30; in data set [7] (read-out: Ki, inhibition of binding of [3H]-flunitrazepam to the BDZ binding site of the GABAA receptor), 3.29; in data set [9], 5.33. In addition, the results for the “reduction of locomotor activity” value in data set [2] (1 mg/kg orally), in data set [2] (10 mg/kg orally) and in data set [2] (30 mg/kg orally) were 33%, 33% and 36%, respectively. Further, in [3], the “muscle-relaxant effect, grasping of horizontal wire” value is given as “without effect”. In addition, the “number of head-dips (Dunnett's test)” value in data set [4] (10 mg/kg orally) is “significantly reduced”. The number of head-dips entry in [4] (30 mg/kg orally) is recorded as “significantly reduced”. In addition, the time spent head-dipping result in data set [4] (30 mg/kg orally) is listed as “significantly reduced”. Also, the “open arm parameters versus controls (Dunnett's test)” value in data set [5] (1 mg/kg orally) was “significantly differed from controls”. Besides, in data set [5] (1, 10 and 30 mg/kg orally, 5 minute test), the “total number of arm entries” value is “did not significantly alter”. For the same compound, the “percentage of open arm entries” value in data set [5] (setting [10]) is “significantly elevated”. The “percentage of time spent on the open arms” value in [5] (setting [10]) is listed as “significantly elevated”. Also, the LD50 in data set [6] is recorded as 930 mg/kg; in data set [8] (mice, sub-cutaneous administration), 670 mg/kg; in [8] (mouse, in vivo, po) it was 1160 mg/kg. The negative logarithm of the IC50 (pIC50) in data set [7] (read-out: IC50, inhibition of binding of [3H]-flunitrazepam to the BDZ binding site of the GABAA receptor) is 3.08.
